We go through 3 substances from article PMC3303804, “Inflammation-Associated Nitrotyrosination Affects TCR Recognition through Reduced Stability and Alteration of the Molecular Surface of the MHC Complex” (PLoS ONE, 2012).

Data set [1] deals with T1, H-2K^b (Mus musculus, UniProt P01901). Description: MHC complex stability, Thermofluor (differential scanning fluorimetry). The settings on record: H-2K^b/peptide complex 0.25 mg/mL, 10 mM Na^+ HEPES pH 7.3, 150 mM NaCl, SYPRO Orange, 20 to 95°C at 1°C/min; maximum of first derivative; average of three distinct melting curves. In kind it is binding. The procedure: Differential scanning fluorimetry experiments were carried out using an iQ5 real-time PCR detection system (Bio-Rad). 96-well PCR plates were filled with 23 µl of MHC solution (0.25 mg/mL) in 10 mM Na^+ HEPES buffer (pH 7.3), 150 mM NaCl per well. Finally, the fluorophore (2 µl of 125× SYPRO Orange (Sigma S5692)) was added to each well and the plate was sealed with optical sealing tape (Bio-Rad). An iQ5 Real-Time PCR Detection System, calibrated with External Well factor solution was used to monitor the changes in fluorescence intensity of the fluorophore. The temperature of the samples was changed from 20 to 95°C at a heating rate of 1°C/min and the fluorescence was recorded every 0.2°C. The melting temperature (Tm) of each melting curve was calculated as the maximum of the first derivative of the curve. The average Tm value of each protein was determined from three distinct melting curves.
In general terms: In DSF a fluorescence change marks the thermal transition of the protein.

The target of data set [2] is T1, H-2K^b. Description: Peptide-MHC binding affinity assay, stabilization of H-2K^b on TAP-deficient RMA-S cells. The settings on record: 5×10^5, peptide overnight (12 hours) 26°C in serum free AIM-V, then 37°C 60 min without peptide, anti-H-2K^b AF6-88.5, flow cytometry, MFI relative to no peptide, repeated three times. (A flow cytometer gives signals particle by particle.)

Data set [3] deals with T1, H-2K^b. Description: MHC complex stability, circular dichroism thermal denaturation. It is filed as binding. The settings on record: for Tm (melting temperature): soluble H-2K^b/peptide complex, CD 218 nm, 30-75°C, 48°C/hour, 20 mM K2HPO4/KH2PO4 pH 7.5, protein 0.15 to 0.25 mg/ml, Tm at 50% denaturation.
The test system of data set [4] is T cell hybridoma 24H1. Set-up: method as in PMID 18424715. The settings on record: cited from earlier work; for recognition by T cell hybridoma 24H1: H-2K^b/peptide or H-2K^b+ target cells coated with peptide.
The test system of data set [5] is T cell hybridoma 4C8. The settings on record: H-2D^b context; 4C8 is H-2D^b/NY-gp33-specific; cited from earlier work. An excerpt:
A significant amount of the overall CD8^+ T cell response to LCMV is dominated by very few viral epitopes, comprising the H-2D^b-and H-2K^b- restricted peptide gp33–41 (hereafter referred to as gp33; […]) and the H-2K^b-restricted peptide gp34–41 (gp34; […]), [39]. Both gp33 and gp34 contain a single tyrosine residue at positions ...

[6] abbreviates: average of at least two independent measurements, value ± spread printed in Figure 4B.
Setting [7] is: average of at least two measurements from two independent refolding assays.

Entries after “also recorded” stand apart in the source; their conditions may differ.

T1 sequence (P01901 whole entry, looked up): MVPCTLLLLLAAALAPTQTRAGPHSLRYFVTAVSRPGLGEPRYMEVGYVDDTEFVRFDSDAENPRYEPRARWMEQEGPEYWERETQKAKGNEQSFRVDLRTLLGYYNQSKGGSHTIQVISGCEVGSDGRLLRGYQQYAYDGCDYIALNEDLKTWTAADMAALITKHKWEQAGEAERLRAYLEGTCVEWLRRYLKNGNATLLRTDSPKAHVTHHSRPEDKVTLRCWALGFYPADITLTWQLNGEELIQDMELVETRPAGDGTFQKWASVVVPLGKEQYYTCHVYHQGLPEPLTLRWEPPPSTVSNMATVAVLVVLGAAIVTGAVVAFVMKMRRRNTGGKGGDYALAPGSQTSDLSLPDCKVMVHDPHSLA

Consider “AV-p3NY-NFATM [NY-gp34, nitrotyrosinated gp34, AV-p3NY-NFATM]”, for which the results for the “Tm (melting temperature)” value in data set [1], in data set [3] (setting [6]) and in data set [3] (setting [7]) were 44.5±0.2, 47.3 ± 0.1 and 47.3 °C, respectively. Moreover, the “binding affinity to H-2K^b (cell surface stabilization)” value in data set [2] is “significantly reduced binding affinity; also recorded: significantly reduced when compared to gp33 and gp34”. In addition, the “capacity to stabilize H-2K^b complexes” value in data set [3] (CD thermal denaturation, compared to gp34) was “considerably reducing the stability; also recorded: significantly reduced when compared to gp34; also recorded: significantly reduced capacity”. For the same substance, in data set [3] (CD, pH 7.5, lower than for H-2K^b/gp34 (nearly)), the “decrease in Tm of H-2K^b/NY-gp34 versus H-2K^b/gp34” value was roughly 10 °C. Moreover, the “relative level of recognition by 24H1, NY-gp34 versus NY-gp33” value in data set [4] (H-2K^b context) is on record as “to a higher level when compared to H-2K^b/NY-gp33”. Also, the “recognition by T cell hybridoma 24H1” value in data set [4] is given as “recognized; also recorded: responded to stimulation”.

AVYNFATM [gp34]: the figures for the “Tm (melting temperature)” value in data set [1], in data set [3] (setting [6]) and in data set [3] (setting [7]) were 54.4±0.1, 56.7 ± 0.1 and 56.7 °C, respectively. The “recognition by T cell hybridoma 24H1” value in data set [4] was “did not recognize”.

As for KAVYNFATM [gp33], the “recognition by T cell hybridoma 24H1” value in data set [4] is “did not recognize”. Besides, the “recognition by T cell hybridoma 4C8” value in data set [5] is listed as “did not recognize”.
